From ChEMBL document CHEMBL1201862, “PubChem BioAssay data set” (2004)
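Dose response: 5 concentrations. Exposure: 48 h. Format: 96-well plates. Endpoint: linear interpolation; highest concentration if not reached. The concentration for 50% growth inhibition is given as GI50.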 Activity calls are given as the source filed them. No stated cut-off is given here; in the data, active = GI50 up to about 1.1 µM and inactive = higher.

Key:
Experiment in all cases: DTP human tumour cell line panel, 48 h
[1] = tested on: SK-MEL-2
[2] = tested on: SF-295
[3] = tested on: OVCAR-3
[4] = tested on: IGROV-1
[5] = tested on: TK-10
[6] = tested on: NCI-H23
[7] = tested on: RPMI-8226
[8] = tested on: T47D
[9] = tested on: MDA-MB-435
[10] = tested on: MDA-N
[11] = tested on: HL-60
[12] = tested on: MCF7
[13] = tested on: MOLT-4
[14] = tested on: SF-268
[15] = tested on: NCI/ADR-RES
[16] = tested on: Hs-578T
[17] = tested on: SK-OV-3
[18] = tested on: SN12C
[19] = tested on: NCI-H226
[20] = tested on: A498
[21] = tested on: HT-29
[22] = tested on: SF-539
[23] = tested on: K562
[24] = tested on: SNB-75
[25] = tested on: ACHN
[26] = tested on: DU-145
[27] = tested on: SK-MEL-5
[28] = tested on: OVCAR-8
[29] = tested on: PC-3
[30] = tested on: UACC-257
[31] = tested on: UACC-62
[32] = tested on: U-251
[33] = tested on: SK-MEL-28
[34] = tested on: HCC 2998
[35] = tested on: NCI-H522
[36] = tested on: 786-0
[37] = tested on: NCI-H460
[38] = tested on: LOX IMVI
[39] = tested on: OVCAR-4
[40] = tested on: HCT-116
[41] = tested on: CAKI-1
[42] = tested on: OVCAR-5
[43] = tested on: KM12
[44] = tested on: SW-620
[45] = tested on: HOP-62
[46] = tested on: SNB-19
[47] = tested on: SR
[48] = tested on: HCT-15
[49] = tested on: EKVX
[50] = tested on: UO-31
[51] = tested on: MDA-MB-231
[52] = tested on: A549
[53] = tested on: M14
[54] = tested on: CCRF-CEM
[55] = tested on: BT-549
[56] = tested on: HOP-92
[57] = tested on: COLO 205
[58] = tested on: Malme-3M
[59] = tested on: RXF 393

Measured: GI50

C=C1CC(COc2cc(=O)oc3ccccc23)(c2ccccc2)OC1=O (centres undefined)
active: [1] 1.08 µM | [7] 0.507 µM | [11] 0.407 µM | [12] 0.413 µM | [23] 0.637 µM | [34] 1.05 µM | [54] 0.625 µM | [56] 1.01 µM
inactive: [2] 5.15 µM | [3] 1.37 µM | [4] 1.51 µM | [5] 1.59 µM | [6] 1.77 µM | [8] 2.25 µM | [9] 3.7 µM | [10] 2.05 µM | [13] 7.94 µM | [14] 7.33 µM | [15] 2.96 µM | [16] 3.53 µM | [17] 3.27 µM | [18] 1.91 µM | [19] 8.17 µM | [20] 2.38 µM | [21] 1.38 µM | [22] 2.74 µM | [24] 4.25 µM | [25] 2.5 µM | [26] 2.44 µM | [27] 1.71 µM | [28] 1.86 µM | [29] 1.95 µM | [30] 1.99 µM | [31] 1.41 µM | [32] 9.4 µM | [33] 2.41 µM | [35] 1.56 µM | [36] 1.51 µM | [37] 9.29 µM | [38] 1.45 µM | [39] 2.12 µM | [40] 1.46 µM | [41] 1.3 µM | [42] 8.07 µM | [43] 3.34 µM | [44] 1.17 µM | [45] 8.53 µM | [46] 16.4 µM | [47] 6.32 µM | [49] 6.27 µM | [50] 6.64 µM | [51] 3.61 µM | [52] 11.2 µM | [53] 1.51 µM | [55] 1.53 µM | [57] 1.51 µM | [58] 1.33 µM
1.82 µM: [48]

COc1ccc(-c2nc3c(C(=O)NCCN(C)C)cccc3c3ccccc23)cc1
2.92 µM: [48]
inactive: [1] 5.21 µM | [2] 2.18 µM | [3] 4.57 µM | [4] 3.47 µM | [5] 7.67 µM | [6] 6.07 µM | [8] 8.99 µM | [9] 2.2 µM | [10] 2.26 µM | [11] 2.07 µM | [12] 2.46 µM | [13] 2.07 µM | [14] 8.53 µM | [15] 7.31 µM | [16] 5.3 µM | [18] 4.2 µM | [19] 5.57 µM | [20] 2.98 µM | [21] 2.51 µM | [22] 2.21 µM | [23] 2.06 µM | [24] 5.13 µM | [25] 3.25 µM | [26] 4.65 µM | [27] 1.74 µM | [28] 4.4 µM | [29] 3.73 µM | [30] 1.89 µM | [31] 1.83 µM | [32] 2.86 µM | [33] 1.97 µM | [34] 1.95 µM | [35] 2.65 µM | [36] 2.49 µM | [37] 2.45 µM | [38] 1.5 µM | [39] 2.81 µM | [40] 3.46 µM | [41] 1.71 µM | [42] 3.95 µM | [43] 3.58 µM | [44] 3.62 µM | [45] 3.06 µM | [46] 3.42 µM | [47] 2.43 µM | [49] 6.78 µM | [50] 1.16 µM | [51] 3.45 µM | [52] 3.1 µM | [53] 1.98 µM | [54] 2.77 µM | [55] 10.5 µM | [56] 3.51 µM | [57] 1.99 µM | [58] 4.3 µM

CC(=O)Nc1ncc2c(n1)-c1ccccc1OC2
> 100 µM: [48]
inactive: [1] > 100 µM | [2] > 100 µM | [3] > 100 µM | [4] > 100 µM | [5] > 100 µM | [6] > 100 µM | [7] > 100 µM | [8] > 100 µM | [9] > 100 µM | [10] > 100 µM | [11] > 100 µM | [12] > 100 µM | [59] > 100 µM | [13] > 100 µM | [14] 80.7 µM | [15] > 100 µM | [16] 19.5 µM | [17] > 100 µM | [18] > 100 µM | [19] > 100 µM | [20] > 100 µM | [21] > 100 µM | [22] > 100 µM | [24] 65.2 µM | [25] 54.3 µM | [26] > 100 µM | [27] > 100 µM | [28] > 100 µM | [29] > 100 µM | [30] > 100 µM | [31] > 100 µM | [32] > 100 µM | [35] > 100 µM | [36] 65.9 µM | [37] > 100 µM | [38] > 100 µM | [39] > 100 µM | [40] > 100 µM | [41] > 100 µM | [42] > 100 µM | [43] > 100 µM | [44] > 100 µM | [46] > 100 µM | [47] > 100 µM | [49] > 100 µM | [50] > 100 µM | [51] > 100 µM | [52] > 100 µM | [53] > 100 µM | [54] > 100 µM | [55] > 100 µM | [56] > 100 µM | [57] > 100 µM

OC1C=C2C3CN(Cc4cc5c(cc43)OCO5)[C@H]2C[C@@H]1O (some centres undefined)
active: [24] 0.794 µM
4.33 µM: [48]
inactive: [1] 3.2 µM | [2] 7.38 µM | [3] 7.13 µM | [4] 4.02 µM | [5] 4.13 µM | [6] 5.96 µM | [7] 6.93 µM | [8] 1.16 µM | [9] 3.94 µM | [10] 3.89 µM | [11] 2.61 µM | [12] 2.96 µM | [59] 2.54 µM | [13] 4.29 µM | [14] 7.28 µM | [15] 15.7 µM | [16] 26.3 µM | [17] 3.82 µM | [18] 5.12 µM | [19] > 100 µM | [20] 6.87 µM | [21] 3.69 µM | [22] 16.9 µM | [23] 4.31 µM | [25] 2.65 µM | [26] 2.64 µM | [27] 3.32 µM | [28] 5.04 µM | [29] 2.19 µM | [30] 2.07 µM | [31] 10.6 µM | [32] 4.86 µM | [33] 11.5 µM | [35] 7.28 µM | [36] 4.12 µM | [37] 2.28 µM | [38] 4.06 µM | [39] 3.07 µM | [40] 3.3 µM | [41] 3.44 µM | [42] 8.39 µM | [43] 3.86 µM | [44] 5.57 µM | [45] 6.84 µM | [46] 4.62 µM | [47] 2.94 µM | [49] 4.36 µM | [50] 6.3 µM | [51] 18.1 µM | [52] 3.74 µM | [53] 4.22 µM | [54] 2.34 µM | [55] 2.13 µM | [56] 5.31 µM | [57] 3.78 µM | [58] 7.23 µM

C1=C(c2ccccc2)C(N2CCOCC2)Oc2ccccc21 (centres undefined)
> 100 µM: [48]
inactive: [2] > 100 µM | [3] > 100 µM | [4] > 100 µM | [5] > 100 µM | [6] > 100 µM | [7] 96.4 µM | [8] > 100 µM | [9] > 100 µM | [10] 92.5 µM | [11] 42.7 µM | [12] > 100 µM | [59] > 100 µM | [13] 81.7 µM | [14] > 100 µM | [15] 79.8 µM | [16] > 100 µM | [17] > 100 µM | [18] > 100 µM | [19] > 100 µM | [20] 25.5 µM | [21] > 100 µM | [22] > 100 µM | [23] 91.8 µM | [24] 32.5 µM | [25] > 100 µM | [26] > 100 µM | [27] > 100 µM | [28] > 100 µM | [29] 77.4 µM | [30] > 100 µM | [31] 95.3 µM | [32] > 100 µM | [33] > 100 µM | [34] > 100 µM | [35] > 100 µM | [36] > 100 µM | [37] > 100 µM | [38] > 100 µM | [39] > 100 µM | [40] > 100 µM | [41] > 100 µM | [42] > 100 µM | [43] > 100 µM | [44] > 100 µM | [45] > 100 µM | [46] > 100 µM | [47] > 100 µM | [49] > 100 µM | [50] 87.7 µM | [51] > 100 µM | [52] > 100 µM | [53] > 100 µM | [54] > 100 µM | [55] 45.3 µM | [56] > 100 µM | [57] > 100 µM | [58] > 100 µM
